Results on twelve molecules are retold here after patent publication US20240294551A1 (AMGEN INC., priority 2022, published 2024).

As a reminder, the inhibition in vivo is the relative decrease from the control value, in per cent. Read a high inhibition in vivo as a response far below the control.

In data set [1] the target is His-tagged KRAS G12D protein (Homo sapiens (Human), UniProt P01116, G12D). The data set can be described thus: KRAS G12D TR-FRET Assay. In kind it is binding. The following applies: read-out: KRAS G12D Binding IC50. In outline: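 His-tagged KRAS G12D (diluted to 20 nM in pH 7.4 HEPES buffer with 10 mM MgCl2 and 10 μM GDP) was preincubated with titrated compound for 30 min at room temperature. Biotinylated KRPep-2d peptide (diluted to 20 nM) was then added for 1 h, and displacement was monitored by TR-FRET.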
His-tagged KRAS G12D protein, sequence (P01116 other isoform, or with tags, fused parts or gaps G12D): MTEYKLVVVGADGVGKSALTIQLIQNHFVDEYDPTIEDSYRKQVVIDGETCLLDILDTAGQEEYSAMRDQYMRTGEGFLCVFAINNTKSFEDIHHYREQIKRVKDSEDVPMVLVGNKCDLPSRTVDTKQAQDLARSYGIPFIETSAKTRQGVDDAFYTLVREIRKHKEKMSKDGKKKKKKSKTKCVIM
In general terms: In TR-FRET formats the signal depends on donor and acceptor labels being close together.

In data set [2] the target is GDP-bound KRAS protein (aa 1-169), containing both G12D and C118A amino acid substitutions (Homo sapiens (Human), UniProt P01116, C118A/G12D). The data set can be described thus: KRAS G12D Coupled Nucleotide Exchange Assay. In kind it is biochemical. To be noted: read-out: KRAS G12D Coupled Exchange IC50.
GDP-bound KRAS protein (aa 1-169), containing both G12D and C118A amino acid substitutions, sequence (P01116 other isoform, or with tags, fused parts or gaps G12D/C118A): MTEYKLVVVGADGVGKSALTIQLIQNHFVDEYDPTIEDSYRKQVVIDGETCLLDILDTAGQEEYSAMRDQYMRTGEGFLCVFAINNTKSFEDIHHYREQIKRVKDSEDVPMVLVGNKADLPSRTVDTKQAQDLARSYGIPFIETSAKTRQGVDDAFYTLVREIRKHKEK
In data set [3] the test system is Phosphorylation of ERK1/2 in AsPC-1 cells. The data set can be described thus: Phospho-ERK1/2 MSD Assay. It counts as cell-based, human. The following applies: Homo sapiens, ASPC1, 2 h, read-out: 2 h p-ERK (AsPC-1 cells), IC50. Put shortly: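 Read-out: MSD electrochemiluminescent detection of phosphorylated ERK1/2 in whole-cell lysates, fitted to a 4-parameter logistic curve for IC50. Prior to lysis, AsPC-1 cells (25,000 per well) received a 2 h compound dose-response at 37 °C.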

Data set [4] concerns AsPC-1 cells. The data set can be described thus: AsPC-1 CTG Assay (CellTiter-Glo cell viability). It counts as cell-based, human. To be noted: Homo sapiens, ASPC1, 72 h, AsPC-1, 72 h; first value of the cell; read-out: G12D/C/V Cell Proliferation CTG (72 h) AsPC-1. Put shortly:
(§1)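 Human pancreatic AsPC-1 or colon SW620 cells in RPMI 1640 with 10% FBS, seeded overnight, then exposed to serially diluted compound for 72 h at 37 °C. CellTiter-Glo luminescence normalized to DMSO control; IC50 from a 4-parameter logistic model.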
(In general: ATP-based viability assays read luminescence as a measure of living cells.)

The subject of data set [5] is SW620 cells. The data set can be described thus: SW620 CTG Assay (CellTiter-Glo cell viability). The following applies: Homo sapiens, SW-620; SW620, 72 h; third value of the cell; read-out: G12D/C/V Cell Proliferation CTG (72 h) SW620. In kind it is cell-based, human. In outline:
as §1

The subject of data set [6] is MIA PaCa-2 cells. The data set can be described thus: MIA PaCa-2 CTG Assay (CellTiter-Glo cell viability). It counts as cell-based, human. The following applies: Homo sapiens; Mia PaCa-2, 72 h; second value of the cell; read-out: G12D/C/V Cell Proliferation CTG (72 h) Mia PaCa-2. In outline:
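Human pancreatic carcinoma cells in RPMI 1640 with 10% FBS, seeded at 1.67E+04 cells/mL and left overnight, were treated with serially diluted compound for 72 h at 37° C, 5% CO2. Viability was read by CellTiter-Glo luminescence normalized to DMSO; IC50 came from a 4-parameter logistic fit.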

The test system of data set [7] is p-ERK in PANC 04.03 tumor-bearing mice. The data set can be described thus: Tumor Pharmacodynamic Assay (p-ERK inhibition in PANC 04.03 tumors). It counts as in vivo. To be noted: Mus musculus; PANC 04.03 tumor-bearing female athymic nude mice; single oral dose 100 mg/kg; tumors harvested 2 hr later; relative to vehicle group. Here is the method:
Tumor Pharmacodynamic Assays
Inhibitor pharmacodynamic effects were assessed in PANC 04.03 tumor-bearing mice. PANC 04.03 tumor cells (5.0E+06 cells) were injected subcutaneously into the flank of female athymic nude mice in a mixture with Matrigel (BD Bioscience). Mice received a single oral dose of either vehicle or inhibitor (100 mg/kg) when the average tumor size reached -300-600 mm^3 (n=3/group) and harvested 2 hours later. Tumor samples were collected, snap frozen, and processed for analysis by pulverizing with a cryoPREP® Dry Impactor (Covaris). Pulverized samples were resuspended in RIPA lysis buffer containing protease and phosphatase inhibitors and homogenized. Cleared lysates were analyzed using phospho-ERK1/2 and total ERK1/2 whole cell lysate kits (Meso Scale Discovery) according to the manufacturer's protocol. Phospho-ERK1/2 signal was normalized to total ERK1/2 signal for a given sample, and percent inhibition of p-ERK was calculated relative to the vehicle group.

Molecules are shown by their SMILES. Like-named read-outs stand apart in the source and are kept apart here.

Under “from COCOc1cc(-c2ncc3c(N4CCC[C@@](C)(N)C4)nc(OC)nc3c2F)c2c(CCCC(=O)O)c(F)ccc2c1, amide bond, 16-membered ring, HATU/DIEA, then HCl/dioxane, DMF, 8.3 mM, 25.0 °C, 2 steps”, `COCOc1cc2c3c(c(F)ccc3c1)CCCC(=O)N[C@]1(C)CCCN(C1)c1nc(OC)nc3c(F)c-2ncc13` yielded a ring closure, yield after HPLC of 5%.

Molecule `CSc1nc2c3cnc(c(C)c3n1)-c1cc(O)cc3ccc(F)c(c13)CCCC(=O)N[C@]1(C)CCCN2C1` came in with a ring closure, yield after HPLC (from CSc1nc(N2CCC[C@@](C)(N)C2)c2cnc(-c3cc(O)cc4ccc(F)c(CCCC(=O)O)c34)c(C)c2n1, amide bond, 16-membered ring, HATU, then Me2NH, DCM/DMA/DMF, 5.6 mM, 25.0 °C, 4.0 h) of 32%.

As for `Fc1c2ncc3c(nc(OC[C@@]45CCCN4C[C@H](F)C5)nc13)N1CCCC3(CC(C3)OCCCCc3c(Cl)cc4[nH]ncc4c3-2)C1`, the ring closure, yield after HPLC (from Fc1c(-c2c(CCCCOC3CC4(CCCNC4)C3)c(Cl)cc3[nH]ncc23)ncc2c(OCC(F)(F)F)nc(OC[C@@]34CCCN3C[C@H](F)C4)nc12, snar bond, 17-membered ring, Cs2CO3, MeCN/DMF, 5.0 mM, 80.0 °C) was determined as 5%.

Regarding `CN1CCC[C@H]1COc1nc2c3cnc(c(F)c3n1)-c1c(c(Cl)cc3[nH]ncc13)CCOC(=O)O[C@H]1C[C@]3(CCCN2C3)C1` (single isomer, unassigned) [Example 212], the IC50 in data set [1] is 4 nM; in data set [2], 3 nM; in data set [3], 5.3 nM; in data set [4], 79 nM; in data set [5], 20 nM; in data set [6], 24 nM. This molecule yielded an inhibition in vivo at 100 mg/kg in data set [7] of 85%.

For `Cc1cc2[nH]ncc2c2c1CCCOC(=O)O[C@@H]1COCCN(C1)c1nc(OC[C@@]34CCCN3C[C@H](F)C4)nc3c(F)c-2ncc13` [Example 97, (26S)-32-fluoro-4-(((2R,7aS)-2-fluorotetrahydro-1H-pyrrolo[1,2-a]pyrrol-7a(5H)-yl)methoxy)-18-methyl-23,25,28-trioxa-1,3,5,9,14,15-hexaazahexacyclo[24.4.1.1~6,10~.0~2,7~.0~11,19~.0~12,16~]dotriaconta-2,4,6,8,10(32),11,13,16,18-nonaen-24-one], the IC50 was 2 nM in data set [1]; 1 nM in data set [2]; 9 nM in data set [3]; 80 nM in data set [4]; 20.8 nM in data set [5]; 20 nM in data set [6]. The molecule also returned an inhibition in vivo at 100 mg/kg in data set [7] of 85%.

With `O=C1OCCCc2c(Cl)cc3[nH]ncc3c2-c2ncc3c(nc(OC[C@@]45CCCN4C[C@H](F)C5)nc3c2F)N2CCOC[C@H](C2)O1` [Example 99, (26S)-18-Chloro-32-fluoro-4-(((2R,7aS)-2-fluorotetrahydro-1H-pyrrolo[1,2-a]pyrrol-7a(5H)-yl)methoxy)-23,25,28-trioxa-1,3,5,9,14,15-hexaazahexacyclo[24.4.1.1˜6,10˜.0˜2,7˜.0˜11,19˜.0˜12,16˜]dotriaconta-2,4,6,8,10(32),11,13,16,18-nonaen-24-one], the IC50 came out at 3 nM in data set [1]; 2 nM in data set [2]; 2 nM in data set [3]; 30 nM in data set [4]; 10 nM in data set [5]; 1 nM in data set [6]. The inhibition in vivo at 100 mg/kg in data set [7] stood at 91%.

Turning to `CN1CCC[C@H]1COc1nc2c3cnc(c(F)c3n1)-c1c(c(Cl)cc3[nH]ncc13)CCCOC(=O)O[C@]1(C)COCCN2C1` [Example 181, (26S)-18-chloro-32-fluoro-26-methyl-4-(((2S)-1-methyl-2-pyrrolidinyl)methoxy)-23,25,28-trioxa-1,3,5,9,14,15-hexaazahexacyclo[24.4.1.1~6,10~.0~2,7~.0~11,19~.0~12,16~]dotriaconta-2,4,6,8,10(32),11,13,16,18-nonaen-24-one], the IC50 is 6 nM in data set [1]; 3 nM in data set [2]; 18.8 nM in data set [3]; 8 nM in data set [5]; 10 nM in data set [6]. At 100 mg/kg the inhibition in vivo in data set [7] was 65%.

With `Cc1cc2[nH]ncc2c2c1CCCOC(=O)O[C@]1(C)COCCN(C1)c1nc(OC[C@@]34CCCN3C[C@H](F)C4)nc3c(F)c-2ncc13` [Example 190, (26S)-32-fluoro-4-(((2R,7aS)-2-fluorotetrahydro-1H-pyrrolo[1,2-a]pyrrol-7a(5H)-yl)methoxy)-18,26-dimethyl-23,25,28-trioxa-1,3,5,9,14,15-hexaazahexacyclo[24.4.1.1~6,10~.0~2,7~.0~11,19~.0~12,16~]dotriaconta-2,4,6,8,10(32),11,13,16,18-nonaen-24-one], the IC50 was found to be 4 nM in data set [1]; 2 nM in data set [2]; 4.5 nM in data set [3]; 5 nM in data set [4]; 4 nM in data set [5]; 4 nM in data set [6]. In data set [7], this molecule registered an inhibition in vivo at 100 mg/kg of 86%.

With `C[C@@]12COCCN(C1)c1nc(OC[C@@]34CCCN3C[C@H](F)C4)nc3c(F)c(ncc13)-c1c(c(Cl)cc3[nH]ncc13)CCCOC(=O)O2` [Example 191, (26S)-18-chloro-32-fluoro-4-(((2R,7aS)-2-fluorotetrahydro-1H-pyrrolo[1,2-a]pyrrol-7a(5H)-yl)methoxy)-26-methyl-23,25,28-trioxa-1,3,5,9,14,15-hexaazahexacyclo[24.4.1.1~6,10~.0~2,7~.0~11,19~.0~12,16~]dotriaconta-2,4,6,8,10(32),11,13,16,18-nonaen-24-one], the IC50 was 3 nM in data set [1]; 2 nM in data set [2]; 1.9 nM in data set [3]; 8 nM in data set [4]; 2 nM in data set [5]; 1 nM in data set [6]. Moreover, the inhibition in vivo at 100 mg/kg in data set [7] came out at 91%.

In the case of `Cc1cc2[nH]ncc2c2c1CCOC(=O)O[C@H]1C[C@@]3(CCCN(C3)c3nc(OC[C@@]45CCCN4C[C@H](F)C5)nc4c(F)c-2ncc34)C1` [Example 194, (1S,3R)-32-fluoro-24-(((2R,7aS)-2-fluorotetrahydro-1H-pyrrolo[1,2-a]pyrrol-7a(5H)-yl)methoxy)-10-methyl-4,6-dioxa-13,14,19,23,25,27-hexaazaheptacyclo[25.3.1.1~1,3~.1~18,22~.0~9,17~.0~12,16~.0~21,26~]tritriaconta-9,11,14,16,18(32),19,21,23,25-nonaen-5-one], the IC50 was 5 nM in data set [1]; 3 nM in data set [2]; 1.3 nM in data set [3]; 6 nM in data set [4]; 4 nM in data set [5]; 7 nM in data set [6]. Further, in data set [7], the inhibition in vivo at 100 mg/kg was 88%.

With `O[C@@H]1c2ncc(o2)CCc2c(Cl)cc3[nH]ncc3c2-c2ncc3c(nc(OC[C@@]45CCCN4C[C@H](F)C5)nc3c2F)N2CCC[C@@H]1C2` [Example 233], the IC50 in data set [1] came to 4 nM; in data set [2], 3 nM; in data set [3], 1 nM; in data set [4], 2 nM; in data set [5], 1 nM. Besides, the inhibition in vivo at 100 mg/kg in data set [7] amounted to 23%.

Regarding `O=C1OCCc2c(Cl)cc3[nH]ncc3c2-c2ncc3c(nc(OC[C@@]45CCCN4C[C@H](F)C5)nc3c2F)N2CCC[C@]3(C2)C[C@H](C3)O1` [Example 249, (1S,3R)-10-chloro-32-fluoro-24-(((2R,7aS)-2-fluorotetrahydro-1H-pyrrolo[1,2-a]pyrrol-7a(5H)-yl)methoxy)-4,6-dioxa-13,14,19,23,25,27-hexaazaheptacyclo[25.3.1.1~1,3~.1~18,22~.0~9,17~.0~12,16~.0~21,26~]tritriaconta-9,11,14,16,18(32),19,21,23,25-nonaen-5-one], the IC50 was determined as 4 nM in data set [1]; 1 nM in data set [2]; 0.7 nM in data set [3]; 5 nM in data set [4]; 3 nM in data set [5]; 2 nM in data set [6]. The same molecule showed an inhibition in vivo at 100 mg/kg in data set [7] of 90%.
